This note sets out measurements from US20260297060A1, “COMPOUNDS FOR THE DEGRADATION OF MUTANT BRAF” (C4 THERAPEUTICS, INC., priority 2023, published 2026).

The nature of data set [1]: Example 8 pharmacokinetics assay for PKPD study (plasma, tumor, liver). Format: in vivo, BALB/c nude mice. Particulars: mouse, po, 10 mg/kg, p.o., single dose. The procedure:
For the PK and PD study, agents were administered to BALB/c nude mice bearing A375 human melanoma xenografts tumors. encorafenib, Compound 8, Compound 26, Compound 38, and Compound 39 were dosed p.o. once on day 1. Encorafenib was dosed at 35 mg/kg, Compound 8, Compound 26, Compound 38, and Compound 39 were dosed at 10 mg/kg. This study was non-GLP.
The plasma samples were collected at predetermined time points for PK analysis. For non-termination plasma collection, blood samples were collected into the 1.5 mL Eppendorf tubes containing 3 μL of 0.5 M EDTA-K2. For termination plasma collection, the mice were euthanized at predetermined time points post the treatment and the blood samples were collected into the 1.5 mL Eppendorf tubes containing 15 μL of 0.5 M EDTA-K2. And then the anticoagulant blood samples were centrifuged at 2,500 g at 4° C. for 15 minutes. The plasma samples were separated into 2 aliquots. The 1st was used for PK analysis, and the 2nd served as backup. The samples were stored at −80° C. before bioanalysis.
The tumor samples were collected at predetermined time points for PK and WB analysis. The tumor was dissected out and split into 3 parts. The 1st part was used for PK analysis, the 2nd part was used for WB analysis and the last one served as backup for study. The samples were transferred into pre-labeled tubes and quickly froze in liquid nitrogen within 2 minutes after dissection. The samples were stored at −80° C. before bioanalysis.
(§1) Liver samples were collected at predetermined time points for PK analysis. The left lobe of the liver was dissected out and split into 2 parts. The 1st part was used for PK analysis and the 2nd part served as the backup for the study. The samples were transferred into pre-labeled tubes and quickly froze in liquid nitrogen within 2 minutes after dissection. The samples were stored at −80° C. before bioanalysis.
The harvested plasma and liver samples were processed for pharmacokinetics analysis by LC-MS/MS with a concentration range of 0.200~200 ng/mL for encorafenib in plasma and liver homogenate, and 0.100-100 ng/ml in tumor homogenate, 1.00-1000 ng/mL for Compound 8 in plasma and 0.500~500 ng/ml in tumor and liver homogenate, 50.0~50,000 ng/mL for Compound 26 and Compound 38 in plasma, 5.0~5000 ng/ml in liver and 2.00~2000 ng/ml in tumor homogenate, 1.00-1000 ng/mL for Compound 39 in plasma and 0.500~500 ng/mL in liver and tumor homogenate.

Data set [2] is described as follows: Example 6 pharmacokinetics assay for PKPD study (plasma, tumor, liver). Format: in vivo, BALB/c nude mice. Particulars: 10 mg/kg, single dose; for concentration at 6 h / concentration at 12 h / concentration at 1 h / concentration at 24 h: mouse, po. How it is done:
For the pharmacokinetic/pharmacodynamic (PKPD) study, compounds were tested in the A375 human melanoma xenografts. Known BRAF inhibitors encorafenib, and dabrafenib were used as positive controls. Encorafenib, dabrafenib, Compound 83, Compound 93, Compound 70, and Compound 54 were administered to BALB/c nude mice bearing A375 tumors on PG-D1 and dosed orally (PO) once. Encorafenib was dosed at 35 mg/kg. Dabrafenib was dosed at 100 mg/kg. Compound 83, Compound 93, Compound 70, and Compound 54 were dosed at 10 mg/kg. The plasma and tumor samples were collected at 1, 6, 12 and 24 hours, and liver samples were collected at 6 hours and 12 hours post the single dose. This study was non-GLP study.
The plasma samples were collected at predetermined time points for PK analysis. The mice were euthanized at predetermined time points post the treatment. The blood samples were collected into the 1.5 mL Eppendorf tubes containing 15 μL of 0.5 M EDTA-K2. And then the anticoagulant blood samples were centrifuged at 2,500 g at 4° C. for 15 minutes. The plasma samples were separated into 2 aliquots. The 1st was used for PK analysis, and the 2nd served as backup. The samples were stored at −80° C. before bioanalysis.
The tumor samples were collected at predetermined time points for PK and WB analysis (B-RAF and p-ERK). The tumor was dissected out and split into 3 parts. The 1st part was used for PK analysis, the 2nd part was used for WB analysis and the last one served as backup for study. The samples were transferred into pre-labeled tubes and quickly froze in liquid nitrogen within 2 minutes after dissection. The samples were stored at −80° C. before bioanalysis.
as §1
For PKPD study, the harvested plasma, tumor and liver were processed for pharmacokinetics analysis by LC/MS/MS with a concentration range of 0.5-1000 ng/mL for Encorafenib and Dabrafenib in plasma, 0.05-100 ng/mL for Encorafenib and Dabrafenib in tumor, 0.2-200 ng/mL for Encorafenib and Dabrafenib in liver, 2.0-2000 ng/mL for compound 93, compound 83, compound 54 and compound 70 in liver, 50.0-50000 ng/mL for compound 83 and compound 70 in plasma, 0.5-1000 ng/mL for compound 83 and compound 70 in tumor, 1.0-2000 ng/mL for compound 93 in plasma, 10.0-20000 ng/mL for compound 54 in plasma, 0.5-500 ng/mL for compound 93 and compound 54 in tumor.

Setting [3] is: liver, read-out: Concentration in Liver (mean ± SEM).
[4] abbreviates: plasma, read-out: Concentration in Plasma (mean ± SEM).
The mark [5] stands for this setting: tumor, read-out: Concentration in Tumor (mean ± SEM).
The mark [6] stands for this setting: liver, 6 h, read-out: Concentration in Liver (mean ± SEM).
The mark [7] stands for this setting: liver, 12 h, read-out: Concentration in Liver (mean ± SEM).
The mark [8] stands for this setting: plasma, 1 h, read-out: Concentration in Plasma (mean ± SEM).
[9] abbreviates: plasma, 6 h, read-out: Concentration in Plasma (mean ± SEM).
[10] abbreviates: plasma, 12 h, read-out: Concentration in Plasma (mean ± SEM).
Where [11] appears, read: plasma, 24 h, read-out: Concentration in Plasma (mean ± SEM).
Setting [12] is: tumor, 1 h, read-out: Concentration in Tumor (mean ± SEM).
[13] abbreviates: tumor, 6 h, read-out: Concentration in Tumor (mean ± SEM).
[14] abbreviates: tumor, 12 h, read-out: Concentration in Tumor (mean ± SEM).
The mark [15] stands for this setting: tumor, 24 h, read-out: Concentration in Tumor (mean ± SEM).

As to `CCN(C)S(=O)(=O)Nc1ccc(F)c(Oc2ccc3ncn(C4CC5(CCN(C6CCC(c7cc8c(cc7F)c(N7CCC(=O)NC7=O)nn8C)CC6)CC5)C4)c(=O)c3c2)c1C#N` (single isomer, unassigned) [Compound 8, 6-[2-cyano-3-[[ethyl(methyl)sulfamoyl]amino]-6-fluoro-phenoxy]-3-[7-[4-[3-(2,4-dioxohexahydropyrimidin-1-yl)-5-fluoro-1-methyl-indazol-6-yl]cyclohexyl]-7-azaspiro[3.5]nonan-2-yl]-4-oxo-quinazoline], in data set [1] (setting [3]), the concentration at 6 h was found to be 379 ± 79.8 ng/g and the concentration at 12 h turned out to be 74.8 ± 11.3 ng/g. Moreover, in data set [1] (setting [4]), the concentration at 1 h is 2940 ± 149 ng/mL, the concentration at 6 h was 339 ± 60.3 ng/mL, the concentration at 12 h stood at 64.7 ± 16.8 ng/mL and the concentration at 24 h was 1.27 ± 0.2 ng/mL. Besides, in data set [1] (setting [5]), the concentration at 1 h was 394 ± 17.6 ng/g, the concentration at 6 h turned out to be 139 ± 21.7 ng/g, the concentration at 12 h was 39.1 ± 5.77 ng/g and the concentration at 24 h came to 8.52 ng/g.

As for `CCN(C)S(=O)(=O)Nc1ccc(F)c(Oc2ccc3ncc([C@@H]4COC5(CCN(C6CCC(c7cc8c(cc7F)c(N7CCC(=O)NC7=O)nn8C)CC6)CC5)C4)nc3c2)c1C#N` (single isomer, unassigned) [Compound 54], the concentration at 6 h in data set [2] (setting [6]) came to 4470 ± 501 ng/g; in data set [2] (setting [9]), 3410 ± 703 ng/mL; in data set [2] (setting [13]), 931 ± 147 ng/g. For the same compound, the concentration at 12 h in data set [2] (setting [7]) was 650 ± 84.2 ng/g; in data set [2] (setting [10]), 605 ± 124 ng/mL; in data set [2] (setting [14]) it was 477 ± 125 ng/g. Besides, the values for the concentration at 1 h in data set [2] (setting [8]) and in data set [2] (setting [12]) were 7740 ± 1180 ng/mL and 513 ± 28.8 ng/g, respectively. In addition, the concentration at 24 h in data set [2] (setting [11]) came out at 54 ± 9.5 ng/mL; in data set [2] (setting [15]), 29.8 ± 2.9 ng/g.

With `CCN(C)S(=O)(=O)Nc1ccc(F)c(Oc2ccc3ncn([C@H]4COC5(CCN(C6CC(c7cc8c(cc7F)c(N7CCC(=O)NC7=O)nn8C)C6)CC5)C4)c(=O)c3c2)c1C#N` (single isomer, unassigned) [Compound 70], the “Concentration in Plasma (mean ± SEM)” value was found to be 15100 ± 3559 ng/mL in data set [2] (1 h), 8563 ± 2312 ng/mL in data set [2] (6 h), 2105 ± 800 ng/mL in data set [2] (12 h) and 106 ± 10.8 ng/mL in data set [2] (24 h). The “Concentration in Tumor (mean ± SEM)” value is 816 ± 239 ng/g in data set [2] (1 h), 1529 ± 458 ng/g in data set [2] (6 h), 564 ± 206 ng/g in data set [2] (12 h) and 21.9 ± 4.93 ng/g in data set [2] (24 h). Moreover, the “Concentration in Liver (mean ± SEM)” value is given as 4363 ± 1423 ng/g in data set [2] (6 h) and 921 ± 317 ng/g in data set [2] (12 h).

As for `CCN(C)S(=O)(=O)Nc1ccc(F)c(Oc2ccc3ncn(C4CC5(CCN(C6CCC(c7cc8c(cc7F)c(N7CCC(=O)NC7=O)nn8C)CC6F)CC5)C4)c(=O)c3c2)c1C#N` (single isomer, unassigned) [Compound 83, 6-[2-cyano-3-[[ethyl(methyl)sulfamoyl]amino]-6-fluoro-phenoxy]-3-[7-[4-[3-(2,4-dioxohexahydropyrimidin-1-yl)-5-fluoro-1-methyl-indazol-6-yl]-2-fluoro-cyclohexyl]-7-azaspiro[3.5]nonan-2-yl]-4-oxo-quinazoline], the concentration at 6 h stood at 6990 ± 166 ng/g in data set [2] (setting [6]), 10400 ± 338 ng/mL in data set [2] (setting [9]) and 1820 ± 354 ng/g in data set [2] (setting [13]). The concentration at 12 h was determined as 1580 ± 273 ng/g in data set [2] (setting [7]), 2420 ± 572 ng/mL in data set [2] (setting [10]) and 751 ± 128 ng/g in data set [2] (setting [14]). Moreover, the concentration at 1 h in data set [2] (setting [8]) was determined as 20100 ± 1510 ng/mL; in data set [2] (setting [12]), 1650 ± 249 ng/g. Besides, the results for the concentration at 24 h in data set [2] (setting [11]) and in data set [2] (setting [15]) were 172 ng/mL and 57.6 ± 37 ng/g, respectively.

As for `Cn1nc(N2CCC(=O)NC2=O)c2cc(F)c(C3CCC(N4CCC5(CC4)CC(n4cnc6ccc(Oc7c(F)ccc(NS(=O)(=O)C8CCCC8)c7C#N)cc6c4=O)C5)CC3)cc21` (single isomer, unassigned) [Compound 93, N-[2-cyano-3-[3-[7-[4-[3-(2,4-dioxohexahydropyrimidin-1-yl)-5-fluoro-1-methyl-indazol-6-yl]cyclohexyl]-7-azaspiro[3.5]nonan-2-yl]-4-oxo-quinazolin-6-yl]oxy-4-fluoro-phenyl]cyclopentanesulfonamide], the concentration at 6 h in data set [2] (setting [6]) is 460 ± 32.7 ng/g; in data set [2] (setting [9]) it was 548 ± 28.3 ng/mL; in data set [2] (setting [13]), 129 ± 13.6 ng/g. Also, the concentration at 12 h in data set [2] (setting [7]) worked out at 117 ± 30.2 ng/g; in data set [2] (setting [10]) it was 114 ± 25.6 ng/mL; in data set [2] (setting [14]), 50.6 ± 14.1 ng/g. The concentration at 1 h in data set [2] (setting [8]) came to 2450 ± 799 ng/mL; in data set [2] (setting [12]), 232 ± 75.6 ng/g. The concentration at 24 h in data set [2] (setting [11]) amounted to 2.85 ± 0.408 ng/mL; in data set [2] (setting [15]), 59.5 ng/g.
